Like-named read-outs stand apart in the source and are kept apart here.
Key:
PRMT5/MEP50 complex = PRMT5/MEP50 complex (Homo sapiens (Human), UniProt O14744); test: HotSpot Assay; type: biochemical
Description: HotSpot Assay. Compounds were solubilized and 3-fold diluted in 100% DMSO. […] Standard reactions were performed in a total volume of 50 μl in assay buffer, with histone H2A (5 μM final) as substrate. To this was added the PRMT5/MEP50 complex diluted to provide a final assay concentration of 5 nM and the compounds were allowed to preincubate for 15 to 20 minutes at room temperature. The reaction was initiated by adding S-[3H-methyl]-adenosyl-L-methionine (PerkinElmer) to final concentration of 1 μM. Following a 60 minutes incubation at 30° C., the reaction was stopped by adding 100 μL of 20% TCA. Each reaction was spotted onto filter plate (MultiScreen FB Filter Plate, Millipore), and washed 5 times with PBS buffer, Scintillation fluid was added to the filter plate and read in a scintillation counter. IC50 values were determined by fitting the data to the standard 4 parameters with Hill Slope using GraphPad Prism software. This procedure generated the HotSpot data in Table 7.

[1] = tested on: Symmetric Di-Methyl Arginine (sDMA) marks in Granta-519 cells; test: sDMA Western blot / In Cell Western in Granta-519 cells; type: cell-based; details: Homo sapiens
Description: Compound titration and cell culture: Compounds were dissolved in DMSO to make 10 mM stock and 3-fold series dilutions were further conducted to make working stocks top at 1 mM. Granta-519 cells were maintained in PRMI 1640 (Corning Cellgro, Catalog #: 10-040-CV) supplemented with 10% v/v FBS (GE Healthcare, Catalog #: SH30910.03) and U-87 MG cells were maintained in DMEM (Corning Cellgro, Catalog #: 10-013-CV) with 10% FBS and 2 mM Glutamin (Corning Cellgro, Catalog #25005CV).
To determine enzyme inhibition IC50 values in Granta-519 and U-87 MG cells using Western Blot analysis. One day before experiment, Granta-519 cells were passaged to a density of 0.5×10^6 cells/ml. U-87 MG cells were trypsinized and 4×10^5 cells were seeded into 6-well plates and allow to grow overnight. The next day, Granta-519 cells were spun down at 1,500 rpm for 4 min, resuspend in fresh medium at 0.5×10^6 cells/ml and 3 mL of culture (1.5×10^6 cells) were seeded into 6 well plate. Eight-point, 3-fold serial dilutions of compound working stocks were added to cells (3 ul, 1:1,000 dilution, DMSO concentration was 0.1%; final top concentration at 1 uM) and incubated for 3 days. Cells incubated with DMSO was used as a vehicle control.
Cells were harvested 3 days later, resuspended in 15 uL PBS, lysed in 4% SDS, and homogenized by passing through homogenizer column (Omega Biotek, Catalog #: HCR003). Total protein concentrations were determined by BCA assay (ThermoFisher Scientific, Catalog #: 23225). Lysates were mixed with 5× Laemmli buffer and boiled for 5 min. Forty ug of total protein was separated on SDS-PAGE gels (Bio-Rad, catalog #: 4568083, 4568043), transferred to PVDF membrane, blocked with 5% dry milk (Bio-Rad, Catalog #: 1706404) in TBS with 0.1% v/v Tween 20 (TBST) for 1 hour at room temperature (RT), and incubated with primary antibodies (sDMA: Cell signaling, Catalog #: 13222, 1:3,000; β-Actin: sigma, Catalog #: 1:5,000) in 5% dry milk in TBST at 4° C. overnight. The next day, membranes were washed with TBST, 5×5 min, and incubated with HRP conjugated seconded antibody (GE Healthcare; Catalog #: NA934-1ML, NA931-1ML; 1:5,000) for 2 hours at RT, followed by 5×5 min washes with TBST, and incubation with ECL substrates (Bio-Rad, Catalog #: 1705061, 1705062). Chemiluminescent signal was captured with Fluochem HD2 imager (Proteinsimple). SmD3me2s bands were quantified by ImageJ. Signals were normalized to β-Actin and DMSO control. IC50 values were calculated using Graphpad Prism ([Inhibitor]vs. normalized response−Variable slope).
sDMA In Cell Western procedure (ICW): Granta-519 cells were passaged to a density of 0.5×10^6 cells/ml one day before experiments and allowed to grow overnight. The next day (day 0), cells were spun down at 1,500 rpm for 4 min, resuspended in fresh medium to 0.2×10^6 cells/ml and 100 uL of cells were added to 384-well plates using a Multidrop Combi Dispenser (ThermoFisher). A series of 9-point, 3-fold serial dilutions of compounds were prepared and dispensed into wells from a 1 mM stock solution using a TECAN digital dispenser (D300e) and the DMSO % concentration was normalized in each well to 0.1%. DMSO and 3 uM of reference compounds were used as negative (minimum inhibition) and positive (maximum inhibition) controls, respectively. After 3 days of incubation, cells were first resuspended and then 80 ul of cells were transferred to a Poly-D-lysine 384-well plate (Corning, Catalog #354663), followed by 30 minutes incubation at room temperature (RT) and 5 additional hours of incubation at 37° C. […]

[2] = In vivo pharmacokinetic study in rat; details: for clearance / half-life / Vd / bioavailability: Sprague-Dawley (SD), blood; for clearance / half-life / Vd: iv; for Vd: read-out: Vss; for bioavailability: po
Description: In a rat (SD, male, non-fasted) non-crossover cassette (n=2) PK study, Example 1 was dosed at 0.5 mg/kg (DMA: […]=5:95, solution) with another compound via i.v. administration (N=3) and 2 mg/kg (0.5% o Na CMC+0.50% Tween80, suspension) with another compound via oral gauge (p.o.) (N=3).
In a rat (SD, male and female, non-fasted) non-crossover cassette (n=4) PK study, Example 6 was dosed at 0.2 mg/kg (DMA: […]=5:95, solution) with other 3 compounds via i.v. administration (N=2 per sex) and 2 mg/kg (0.5% o Na CMC+0.50% Tween80, suspension) with other 3 compounds via oral gauge (p.o.) (N=2 per sex).
In a rat (SD, male and female, non-fasted) non-crossover PK study, Example 11 was dosed at 1 mg/kg (DMA: 20% HPBCD=5:95, solution) via i.v. administration (N=3 per sex) and 3 mg/kg (0.5% Na CMC+0.5% Tween80, suspension) via oral gauge (p.o.) (N=3 per sex).

[3] = 72 h, Granta-519, 3 days, read-out: sDMA_Granta IC50
[4] = rat SD male, i.v. 0.5 mg/kg, cassette
[5] = rat SD female, i.v. 0.2 mg/kg, cassette
[6] = rat SD male, i.v. 0.2 mg/kg, cassette
[7] = rat SD female, p.o. 2 mg/kg, cassette (n=4)
[8] = rat SD male, p.o. 2 mg/kg, cassette (n=4)

PRMT5/MEP50 complex, sequence (O14744 whole entry): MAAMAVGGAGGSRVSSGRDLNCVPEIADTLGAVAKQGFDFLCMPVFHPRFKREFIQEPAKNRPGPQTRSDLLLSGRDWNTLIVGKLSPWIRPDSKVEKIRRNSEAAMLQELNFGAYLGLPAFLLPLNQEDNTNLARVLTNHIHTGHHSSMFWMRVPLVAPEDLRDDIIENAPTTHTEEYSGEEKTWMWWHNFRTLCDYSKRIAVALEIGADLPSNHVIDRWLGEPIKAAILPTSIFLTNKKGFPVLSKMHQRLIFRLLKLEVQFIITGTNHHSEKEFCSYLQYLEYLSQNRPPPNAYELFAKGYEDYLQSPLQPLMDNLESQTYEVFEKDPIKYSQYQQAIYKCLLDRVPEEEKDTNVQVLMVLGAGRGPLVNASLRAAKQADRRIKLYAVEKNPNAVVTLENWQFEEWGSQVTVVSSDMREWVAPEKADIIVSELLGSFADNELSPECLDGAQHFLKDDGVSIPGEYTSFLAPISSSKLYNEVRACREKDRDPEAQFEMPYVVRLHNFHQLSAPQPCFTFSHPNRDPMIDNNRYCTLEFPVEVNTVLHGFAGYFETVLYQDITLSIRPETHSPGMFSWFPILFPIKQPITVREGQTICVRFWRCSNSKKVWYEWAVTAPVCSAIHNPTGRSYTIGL
PRMT5/MEP50 complex, sequence (Q9BQA1 whole entry partner): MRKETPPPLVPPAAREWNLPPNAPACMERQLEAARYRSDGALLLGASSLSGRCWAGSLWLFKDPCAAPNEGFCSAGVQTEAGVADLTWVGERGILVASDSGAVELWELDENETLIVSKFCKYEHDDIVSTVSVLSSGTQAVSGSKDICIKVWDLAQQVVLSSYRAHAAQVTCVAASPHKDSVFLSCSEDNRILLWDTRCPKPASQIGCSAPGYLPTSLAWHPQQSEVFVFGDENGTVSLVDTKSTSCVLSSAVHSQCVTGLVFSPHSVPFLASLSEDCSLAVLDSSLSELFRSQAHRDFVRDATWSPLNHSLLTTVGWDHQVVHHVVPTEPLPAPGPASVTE

Compound: C[C@@](O)(c1ccc2c(c1)CC2)[C@H]1O[C@@H](n2ccc3c(N)ncnc32)[C@H](O)[C@@H]1O [Example 1, (2R,3R,4S,5S)-2-(4-amino-7H-pyrrolo[2,3-d]pyrimidin-7-yl)-5-((R)-1-(bicyclo[4.2.0]octa-1(6),2,4-trien-3-yl)-1-hydroxyethyl)tetrahydrofuran-3,4-diol]
- IC50 (PRMT5/MEP50 complex): 3 nM
- IC50 [1, 3]: 22 nM
- IC50 ([1]; Granta-519, initial testing, read-out: sDMS (Granta) IC50): 9 nM
- clearance [2, 4]: 56.2 mL/min/kg
- half-life [2, 4]: 0.35 h
- Vd [2, 4]: 1.36 L/kg
- dose normalized AUC ([2]; rat SD male, p.o. 2 mg/kg, cassette): 145 ng·kg·h/mL/mg

Compound: Nc1ncnc2c1ccn2[C@@H]1O[C@H]([C@H](O)c2ccc3c(c2)CC3)[C@@H](O)[C@H]1O [Example 2, (2R,3R,4S,5R)-2-(4-amino-7H-pyrrolo[2,3-d]pyrimidin-7-yl)-5-((R)-bicyclo[4.2.0]octa-1(6),2,4-trien-3-yl(hydroxy)methyl)tetrahydrofuran-3,4-diol]
- IC50 (PRMT5/MEP50 complex): 2 nM
- IC50 [1, 3]: 20 nM

Compound: Nc1ncnc2c1c(F)cn2[C@@H]1O[C@H]([C@H](O)c2ccc3c(c2)CC3)[C@@H](O)[C@H]1O [Example 6, (2R,3R,4S,5R)-2-(4-amino-5-fluoro-7H-pyrrolo[2,3-d]pyrimidin-7-yl)-5-((R)-bicyclo[4.2.0]octa-1(6),2,4-trien-3-yl(hydroxy)methyl)tetrahydrofuran-3,4-diol]
- IC50 (PRMT5/MEP50 complex): 0.7 nM
- IC50 [1, 3]: 38 nM
- clearance [2, 5]: 21.6 mL/min/kg
- half-life [2, 5]: 1.69 h
- Vd [2, 5]: 1.91 L/kg
- clearance [2, 6]: 59.2 mL/min/kg
- half-life [2, 6]: 0.46 h
- Vd [2, 6]: 1.81 L/kg
- bioavailability [2, 7]: > 100%
- bioavailability [2, 8]: 51.1%
- dose normalized AUC [2, 7]: 1143 ng·kg·h/mL/mg
- dose normalized AUC [2, 8]: 144 ng·kg·h/mL/mg

Compound: Cc1ncnc2c1ccn2[C@@H]1O[C@H]([C@H](O)c2ccc3c(c2)CC3)[C@@H](O)[C@H]1O [Example 11, (2R,3S,4R,5R)-2-((R)-bicyclo[4.2.0]octa-1(6),2,4-trien-3-yl(hydroxy)methyl)-5-(4-methyl-7H-pyrrolo[2,3-d]pyrimidin-7-yl)tetrahydrofuran-3,4-diol]
- IC50 (PRMT5/MEP50 complex): 3 nM
- IC50 [1, 3]: 33 nM
- clearance ([2]; rat SD female, i.v. 1 mg/kg): 37.2 mL/min/kg
- half-life ([2]; rat SD female, i.v. 1 mg/kg): 1.84 h
- Vd ([2]; rat SD female, i.v. 1 mg/kg): 2.71 L/kg
- clearance ([2]; rat SD male, i.v. 1 mg/kg): 77.5 mL/min/kg
- half-life ([2]; rat SD male, i.v. 1 mg/kg): 1.06 h
- Vd ([2]; rat SD male, i.v. 1 mg/kg): 2.85 L/kg
- bioavailability ([2]; rat SD female, p.o. 3 mg/kg): 97%
- bioavailability ([2]; rat SD male, p.o. 3 mg/kg): 13%
- dose normalized AUC ([2]; rat SD female, p.o. 3 mg/kg): 434 ng·kg·h/mL/mg
- dose normalized AUC ([2]; rat SD male, p.o. 3 mg/kg): 33 ng·kg·h/mL/mg

Compound: Nc1ncnc2c1c(Br)cn2[C@@H]1O[C@H]([C@H](O)c2ccc3c(c2)CC3)[C@@H](O)[C@H]1O [Example 36, (2R,3R,4S,5R)-2-(4-amino-5-bromo-7H-pyrrolo[2,3-d]pyrimidin-7-yl)-5-((R)-bicyclo[4.2.0]octa-1,3,5-trien-3-yl(hydroxy)methyl)tetrahydrofuran-3,4-diol]
- IC50 (PRMT5/MEP50 complex): 11 nM
- IC50 [1, 3]: 3780 nM

Compound: Cc1ncnc2c1ccn2[C@@H]1O[C@H]([C@H](O)c2nc3c(s2)CCC3)[C@@H](O)[C@H]1O [Example 52, (2S,3S,4R,5R)-2-((S)-(5,6-dihydro-4H-cyclopenta[d]thiazol-2-yl)(hydroxy)methyl)-5-(4-methyl-7H-pyrrolo[2,3-d]pyrimidin-7-yl)tetrahydrofuran-3,4-diol]
- IC50 (PRMT5/MEP50 complex): 9 nM
- IC50 [1, 3]: 1700 nM

Compound: OCCc1ncnc2c1ccn2[C@@H]1O[C@H]([C@H](O)c2ccc3c(c2)CC3)[C@@H](O)[C@H]1O [Example 53, (2R,3S,4R,5R)-2-((R)-bicyclo[4.2.0]octa-1,3,5-trien-3-yl(hydroxy)methyl)-5-(4-(2-hydroxyethyl)-7H-pyrrolo[2,3-d]pyrimidin-7-yl)tetrahydrofuran-3,4-diol]
- IC50 (PRMT5/MEP50 complex): 164 nM
- IC50 [1, 3]: 5240 nM

Compound: CNc1ncnc2c1ccn2[C@@H]1O[C@H]([C@H](O)c2ccc3c(c2)CC3)[C@@H](O)[C@H]1O [Example 54, (2R,3S,4R,5R)-2-((R)-bicyclo[4.2.0]octa-1(6),2,4-trien-3-yl(hydroxy)methyl)-5-(4-(methylamino)-7H-pyrrolo[2,3-d]pyrimidin-7-yl)tetrahydrofuran-3,4-diol]
- IC50 [1, 3]: 759 nM

Compound: O[C@@H]1[C@H](O)[C@@H]([C@H](O)c2ccc3c(c2)CC3)O[C@H]1n1ccc2c(Cl)ncnc21 [Example 56, (2R,3S,4R,5R)-2-((R)-bicyclo[4.2.0]octa-1(6),2,4-trien-3-yl(hydroxy)methyl)-5-(4-chloro-7H-pyrrolo[2,3-d]pyrimidin-7-yl)tetrahydrofuran-3,4-diol]
- IC50 [1, 3]: 923 nM
